Legend:
[1] = target: Fibroblast growth factor receptor 4 (Homo sapiens) (UniProt P22455)
[2] = target: Mitogen-activated protein kinase 14 (Homo sapiens) (UniProt Q16539)
[3] = target: T1, Homeodomain-interacting protein kinase 4 (Homo sapiens) (UniProt Q8NE63)
T1 sequence (whole entry): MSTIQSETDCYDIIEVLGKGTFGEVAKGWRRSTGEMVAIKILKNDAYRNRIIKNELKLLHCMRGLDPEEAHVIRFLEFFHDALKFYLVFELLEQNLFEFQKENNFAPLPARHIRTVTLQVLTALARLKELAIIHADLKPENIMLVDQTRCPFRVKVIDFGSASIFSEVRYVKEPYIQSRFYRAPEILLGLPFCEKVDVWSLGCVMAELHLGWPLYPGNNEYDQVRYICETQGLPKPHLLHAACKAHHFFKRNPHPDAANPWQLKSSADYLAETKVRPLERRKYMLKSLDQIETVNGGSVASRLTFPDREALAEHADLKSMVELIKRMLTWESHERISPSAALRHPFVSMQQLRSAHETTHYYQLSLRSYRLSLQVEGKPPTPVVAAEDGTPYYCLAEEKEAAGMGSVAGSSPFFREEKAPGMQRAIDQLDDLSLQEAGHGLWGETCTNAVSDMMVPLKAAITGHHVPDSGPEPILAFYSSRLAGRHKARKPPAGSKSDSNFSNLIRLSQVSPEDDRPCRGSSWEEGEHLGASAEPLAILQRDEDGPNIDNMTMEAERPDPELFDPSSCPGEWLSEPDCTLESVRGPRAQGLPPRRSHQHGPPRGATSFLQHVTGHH

[4] = target: MAP kinase-interacting serine/threonine-protein kinase 1 (Homo sapiens) (UniProt Q9BUB5)
[5] = target: T2, Serine/threonine-protein kinase 17A (Homo sapiens) (UniProt Q9UEE5)
T2 sequence (whole entry): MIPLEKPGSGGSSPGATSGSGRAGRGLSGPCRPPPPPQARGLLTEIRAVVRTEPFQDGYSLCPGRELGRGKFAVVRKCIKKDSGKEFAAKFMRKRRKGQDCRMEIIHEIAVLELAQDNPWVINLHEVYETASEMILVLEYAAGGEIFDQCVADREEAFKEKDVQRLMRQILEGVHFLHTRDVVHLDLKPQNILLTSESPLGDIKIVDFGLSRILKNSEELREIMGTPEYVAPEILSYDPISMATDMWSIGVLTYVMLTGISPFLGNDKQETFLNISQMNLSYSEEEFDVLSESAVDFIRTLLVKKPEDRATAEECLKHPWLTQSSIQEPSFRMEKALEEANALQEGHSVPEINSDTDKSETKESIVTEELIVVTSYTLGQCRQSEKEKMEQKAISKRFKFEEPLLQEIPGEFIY

[6] = target: T3, Beta-adrenergic receptor kinase 1 (Homo sapiens) (UniProt P25098)
T3 sequence (whole entry): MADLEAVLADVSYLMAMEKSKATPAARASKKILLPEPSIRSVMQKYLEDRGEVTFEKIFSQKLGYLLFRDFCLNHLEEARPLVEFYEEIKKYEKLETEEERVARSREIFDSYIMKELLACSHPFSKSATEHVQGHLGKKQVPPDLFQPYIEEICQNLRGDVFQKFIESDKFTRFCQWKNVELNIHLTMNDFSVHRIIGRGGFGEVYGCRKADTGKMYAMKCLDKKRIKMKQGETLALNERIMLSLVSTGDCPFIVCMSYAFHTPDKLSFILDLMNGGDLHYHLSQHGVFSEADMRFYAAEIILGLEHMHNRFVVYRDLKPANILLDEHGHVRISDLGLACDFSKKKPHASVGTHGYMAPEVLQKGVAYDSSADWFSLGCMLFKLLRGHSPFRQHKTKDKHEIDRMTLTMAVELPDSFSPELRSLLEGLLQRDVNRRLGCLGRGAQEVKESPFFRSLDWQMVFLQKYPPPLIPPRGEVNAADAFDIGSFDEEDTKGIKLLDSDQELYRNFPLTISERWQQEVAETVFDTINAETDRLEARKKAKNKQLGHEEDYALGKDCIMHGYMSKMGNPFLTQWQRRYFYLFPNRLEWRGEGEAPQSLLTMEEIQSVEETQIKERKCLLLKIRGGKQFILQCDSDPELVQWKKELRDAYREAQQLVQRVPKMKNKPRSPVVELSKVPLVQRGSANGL

[7] = target: Serine/threonine-protein kinase OSR1 (Homo sapiens) (UniProt O95747)
[8] = target: Macrophage colony-stimulating factor 1 receptor (Homo sapiens) (UniProt P07333)
[9] = target: Myosin-IIIa (Homo sapiens) (UniProt Q8NEV4)
[10] = Compound concentration 100.0 nM
[11] = Compound concentration 1000.0 nM

Measured: residual activity

Sequence of MAP kinase-interacting serine/threonine-protein kinase 1 (Homo sapiens) (Q9BUB5 whole entry, looked up): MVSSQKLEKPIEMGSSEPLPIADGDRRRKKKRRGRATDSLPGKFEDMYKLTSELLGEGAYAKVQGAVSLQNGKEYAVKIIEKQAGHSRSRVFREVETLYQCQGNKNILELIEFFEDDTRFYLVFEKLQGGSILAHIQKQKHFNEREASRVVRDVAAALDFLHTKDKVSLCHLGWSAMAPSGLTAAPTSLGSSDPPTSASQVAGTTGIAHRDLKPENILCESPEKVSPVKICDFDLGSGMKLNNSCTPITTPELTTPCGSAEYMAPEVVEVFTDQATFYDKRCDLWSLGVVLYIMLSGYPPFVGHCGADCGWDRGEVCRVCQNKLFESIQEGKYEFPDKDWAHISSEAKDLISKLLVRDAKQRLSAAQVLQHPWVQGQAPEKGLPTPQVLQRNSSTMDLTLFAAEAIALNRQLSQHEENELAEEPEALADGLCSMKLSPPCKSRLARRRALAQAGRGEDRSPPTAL
Sequence of Macrophage colony-stimulating factor 1 receptor (Homo sapiens) (P07333 whole entry): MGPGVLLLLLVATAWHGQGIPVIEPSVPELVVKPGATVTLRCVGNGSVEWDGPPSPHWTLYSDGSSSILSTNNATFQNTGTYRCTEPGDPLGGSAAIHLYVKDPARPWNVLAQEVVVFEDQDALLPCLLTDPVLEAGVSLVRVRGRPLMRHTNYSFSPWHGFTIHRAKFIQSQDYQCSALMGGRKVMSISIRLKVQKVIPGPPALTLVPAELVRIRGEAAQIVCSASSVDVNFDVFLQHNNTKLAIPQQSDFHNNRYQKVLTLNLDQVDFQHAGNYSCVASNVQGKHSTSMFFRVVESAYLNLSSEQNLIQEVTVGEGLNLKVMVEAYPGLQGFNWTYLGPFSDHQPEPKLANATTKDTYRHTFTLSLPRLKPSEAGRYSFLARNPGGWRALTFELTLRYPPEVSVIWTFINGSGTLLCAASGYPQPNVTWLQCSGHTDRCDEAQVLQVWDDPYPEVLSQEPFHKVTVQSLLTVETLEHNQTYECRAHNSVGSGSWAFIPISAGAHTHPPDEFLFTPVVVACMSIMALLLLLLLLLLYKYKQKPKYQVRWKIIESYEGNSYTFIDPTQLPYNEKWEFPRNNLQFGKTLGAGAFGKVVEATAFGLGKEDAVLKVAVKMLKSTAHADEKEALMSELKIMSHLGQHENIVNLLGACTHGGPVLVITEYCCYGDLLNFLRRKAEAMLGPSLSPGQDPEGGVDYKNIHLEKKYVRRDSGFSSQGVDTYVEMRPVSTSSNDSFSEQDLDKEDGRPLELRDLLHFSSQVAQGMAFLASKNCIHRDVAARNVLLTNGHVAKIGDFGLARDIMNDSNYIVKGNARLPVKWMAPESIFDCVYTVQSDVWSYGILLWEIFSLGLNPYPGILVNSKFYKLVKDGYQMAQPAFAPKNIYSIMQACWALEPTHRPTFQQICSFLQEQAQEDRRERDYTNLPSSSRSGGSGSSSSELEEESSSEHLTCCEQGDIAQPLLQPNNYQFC
Sequence of Mitogen-activated protein kinase 14 (Homo sapiens) (Q16539 whole entry): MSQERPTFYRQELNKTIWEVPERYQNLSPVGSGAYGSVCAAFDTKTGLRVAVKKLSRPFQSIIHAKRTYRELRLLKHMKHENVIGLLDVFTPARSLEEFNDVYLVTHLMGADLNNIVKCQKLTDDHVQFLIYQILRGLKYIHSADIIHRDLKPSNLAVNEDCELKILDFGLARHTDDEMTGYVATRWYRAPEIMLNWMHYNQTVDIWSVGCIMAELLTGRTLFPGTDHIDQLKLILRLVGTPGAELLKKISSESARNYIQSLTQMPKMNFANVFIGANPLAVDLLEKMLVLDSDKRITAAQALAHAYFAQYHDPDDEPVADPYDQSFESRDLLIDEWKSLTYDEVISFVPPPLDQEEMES
Sequence of Serine/threonine-protein kinase OSR1 (Homo sapiens) (O95747 2-527 limits assumed): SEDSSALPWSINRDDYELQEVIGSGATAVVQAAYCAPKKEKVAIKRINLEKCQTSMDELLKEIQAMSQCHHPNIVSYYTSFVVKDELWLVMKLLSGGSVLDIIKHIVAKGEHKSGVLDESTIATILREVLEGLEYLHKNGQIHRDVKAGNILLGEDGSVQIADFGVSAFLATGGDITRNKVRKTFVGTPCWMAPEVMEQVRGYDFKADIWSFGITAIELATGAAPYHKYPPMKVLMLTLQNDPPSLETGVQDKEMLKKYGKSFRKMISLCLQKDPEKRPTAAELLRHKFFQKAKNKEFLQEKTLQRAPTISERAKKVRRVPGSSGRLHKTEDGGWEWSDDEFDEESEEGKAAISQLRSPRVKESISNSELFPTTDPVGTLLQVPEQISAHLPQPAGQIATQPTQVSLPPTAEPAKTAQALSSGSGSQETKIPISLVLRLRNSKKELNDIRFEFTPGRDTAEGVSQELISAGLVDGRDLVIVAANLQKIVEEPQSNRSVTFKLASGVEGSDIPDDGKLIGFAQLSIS
Sequence of Myosin-IIIa (Homo sapiens) (Q8NEV4 whole entry): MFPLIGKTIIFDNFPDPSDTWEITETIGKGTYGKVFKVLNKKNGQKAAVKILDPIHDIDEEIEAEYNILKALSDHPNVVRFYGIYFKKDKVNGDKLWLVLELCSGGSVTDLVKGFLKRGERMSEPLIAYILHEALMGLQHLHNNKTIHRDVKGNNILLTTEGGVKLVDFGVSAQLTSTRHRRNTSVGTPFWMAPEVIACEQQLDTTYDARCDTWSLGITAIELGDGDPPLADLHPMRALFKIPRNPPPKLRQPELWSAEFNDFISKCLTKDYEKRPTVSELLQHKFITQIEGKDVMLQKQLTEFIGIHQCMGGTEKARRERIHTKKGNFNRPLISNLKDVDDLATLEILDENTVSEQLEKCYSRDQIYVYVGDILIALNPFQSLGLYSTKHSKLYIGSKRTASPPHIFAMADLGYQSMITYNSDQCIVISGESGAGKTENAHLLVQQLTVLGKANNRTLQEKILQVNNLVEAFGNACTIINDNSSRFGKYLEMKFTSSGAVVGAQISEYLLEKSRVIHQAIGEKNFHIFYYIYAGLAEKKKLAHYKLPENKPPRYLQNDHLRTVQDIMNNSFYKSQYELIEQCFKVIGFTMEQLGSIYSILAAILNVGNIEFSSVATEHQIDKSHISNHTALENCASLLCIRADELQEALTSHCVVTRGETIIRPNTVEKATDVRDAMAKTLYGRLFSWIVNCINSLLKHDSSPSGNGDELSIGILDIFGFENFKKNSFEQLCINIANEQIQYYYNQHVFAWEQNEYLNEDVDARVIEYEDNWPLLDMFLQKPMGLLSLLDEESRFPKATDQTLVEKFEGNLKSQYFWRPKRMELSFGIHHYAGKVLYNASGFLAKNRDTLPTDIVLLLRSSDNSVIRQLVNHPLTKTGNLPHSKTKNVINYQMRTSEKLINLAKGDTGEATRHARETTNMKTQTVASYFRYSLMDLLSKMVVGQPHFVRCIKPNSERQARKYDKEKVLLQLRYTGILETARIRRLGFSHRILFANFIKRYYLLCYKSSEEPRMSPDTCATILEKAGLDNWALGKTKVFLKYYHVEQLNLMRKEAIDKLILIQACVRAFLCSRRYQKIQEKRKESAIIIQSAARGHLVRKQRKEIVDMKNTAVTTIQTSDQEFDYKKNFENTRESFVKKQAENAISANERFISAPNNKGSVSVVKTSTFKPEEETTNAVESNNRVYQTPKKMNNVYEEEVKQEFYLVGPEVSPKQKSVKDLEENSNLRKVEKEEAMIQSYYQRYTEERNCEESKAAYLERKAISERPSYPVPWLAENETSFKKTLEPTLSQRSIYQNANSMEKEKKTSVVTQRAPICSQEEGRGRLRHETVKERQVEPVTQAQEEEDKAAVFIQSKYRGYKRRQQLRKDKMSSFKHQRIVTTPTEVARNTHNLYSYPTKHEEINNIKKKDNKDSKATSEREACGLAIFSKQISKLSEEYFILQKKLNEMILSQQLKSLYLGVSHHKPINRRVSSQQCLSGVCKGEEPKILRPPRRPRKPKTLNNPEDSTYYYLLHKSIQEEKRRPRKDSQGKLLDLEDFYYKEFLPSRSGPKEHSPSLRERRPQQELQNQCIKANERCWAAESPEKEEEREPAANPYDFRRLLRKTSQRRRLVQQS
Sequence of Fibroblast growth factor receptor 4 (Homo sapiens) (P22455 22-802 limits assumed): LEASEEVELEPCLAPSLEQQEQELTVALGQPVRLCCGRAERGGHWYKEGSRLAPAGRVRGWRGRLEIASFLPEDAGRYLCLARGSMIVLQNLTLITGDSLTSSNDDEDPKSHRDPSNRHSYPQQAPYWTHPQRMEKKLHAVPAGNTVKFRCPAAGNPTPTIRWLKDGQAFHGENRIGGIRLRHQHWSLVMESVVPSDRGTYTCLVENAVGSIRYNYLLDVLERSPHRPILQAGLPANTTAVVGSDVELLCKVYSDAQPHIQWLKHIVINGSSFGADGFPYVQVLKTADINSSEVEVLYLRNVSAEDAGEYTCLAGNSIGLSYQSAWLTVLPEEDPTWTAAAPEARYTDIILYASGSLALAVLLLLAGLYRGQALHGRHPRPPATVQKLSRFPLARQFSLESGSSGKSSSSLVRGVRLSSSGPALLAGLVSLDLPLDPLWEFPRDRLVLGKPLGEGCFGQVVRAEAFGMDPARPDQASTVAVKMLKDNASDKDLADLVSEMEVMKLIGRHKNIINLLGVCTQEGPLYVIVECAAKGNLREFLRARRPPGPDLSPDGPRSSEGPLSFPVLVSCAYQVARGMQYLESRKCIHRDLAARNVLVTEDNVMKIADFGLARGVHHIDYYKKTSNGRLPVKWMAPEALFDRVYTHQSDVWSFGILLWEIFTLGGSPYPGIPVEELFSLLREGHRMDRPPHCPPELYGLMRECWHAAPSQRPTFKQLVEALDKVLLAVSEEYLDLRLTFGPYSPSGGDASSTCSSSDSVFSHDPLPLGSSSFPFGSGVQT

C[C@@H]1CN(c2cc(-c3n[nH]c4ccc(OC5(C)CC5)cc34)ncn2)C[C@H](C)O1 [MLi-2]
inactive: [1]; [10] 100% | [2]; [10] 95% | [3]; [10] 97% | [4]; [10] 67% | [5]; [10] 100% | [6]; [10] 86% | [7]; [10] 72% | [8]; [10] 91% | [9]; [10] 100%

C[C@@H]1CN(c2cc(-c3nn(C)c4ccc(OC5(C)CC5)cc34)ncn2)C[C@H](C)O1 [MLi-2-NC]
inactive: [1]; [11] 100% | [2]; [11] 100% | [3]; [11] 79% | [4]; [11] 79% | [5]; [11] 81% | [6]; [11] 68% | [7]; [11] 93% | [8]; [11] 100% | [9]; [11] 100%

— ChEMBL document CHEMBL4507291 (2021)
